The values below come from patent US20240139125A1 (INDUSTRIAL COOPERATION FOUNDATION JEONBUK NATIONAL …, priority 2020, published 2024).

Holding throughout (type): cell-based
In data set [1] the test system is BI-1 (TMBIM6) knockout HT1080 cells. As to the kind of experiment: Cell proliferation of knockout cells with BIA (off-target check). As to the method:
BI-1 (TMBIM6) WT HT1080 cells, BI-1 (TMBIM6) knockout HT1080 , human breast cancer cell lines MCF7, MDA-MB-231 and SKBR3 were treated with BIA 0.5, 1.0, 2.0, 5.0, 10.0 μM and cell proliferation was confirmed. Cells with proliferation of all cell lines by 5 μM BIA treatment It was confirmed that viability was inhibited (see FIG. 57).
Cell proliferation in BI-1 (TMBIM6) knockout HT1080 cells was investigated to determine if the antiproliferative effect by BIA at this dose was an off-target effect. The cell proliferation rate and AKT phosphorylation of BI-1 (TMBIM6) knockout HT1080 cells were the same with or without BIA except for high concentrations of “20 and 30 μM” (see FIG. 57).
Cell proliferation was investigated in BI-1 (TMBIM6) knockout HT1080 cells to determine if the antiproliferative effect by BIA at the dose was a non-targeted effect. The cell proliferation rate and AKT phosphorylation of BI-1 (TMBIM6) knockout HT1080 cells were the same in the treated and untreated groups of BIA except for high concentrations of “20 and 30 μM” (see FIGS. 63A and 63B).

For data set [2], the system named is HT1080, MCF7, MDA-MB-231 and SKBR3 cells. As to the kind of experiment: Cell migration (Transwell, wound healing). On the procedure:
Image (A) and quantification graph (B) (n=3 independent experiment).
FIG. […] The graph on the right quantifies migrated cells from BIA-treated cells normalized to control cells (n=3 independent experiments. Data were expressed in mean±SD. **p<0.01, ***p<0.001, two-tailed unpaired t-test simulation. The scale bar represents 15 μm.
It was used and checked. Cells were treated with trypsin, and serum and 2×10^4 cells were added to the upper chamber in DMEM, cells transported to the lower chamber via transwell for 12 hours were fixed and stained with crystal violet to perform migration analysis.

For another data set, the target named is T1, BI-1 (TMBIM6) (Homo sapiens, UniProt P55061).
T1 construct: endogenous in cells; host or cells: HT1080 cells transfected only with the G-CEPIAer indicator plasmid
T1 sequence (P55061 whole entry): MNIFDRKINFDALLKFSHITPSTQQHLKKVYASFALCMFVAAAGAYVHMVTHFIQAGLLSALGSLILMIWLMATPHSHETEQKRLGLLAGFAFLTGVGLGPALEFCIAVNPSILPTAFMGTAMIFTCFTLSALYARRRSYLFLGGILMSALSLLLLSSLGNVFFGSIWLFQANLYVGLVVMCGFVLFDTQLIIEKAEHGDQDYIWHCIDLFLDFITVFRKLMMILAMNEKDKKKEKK
Kind of data set: G-CEPIAer ER lumen calcium indicator. The conditions noted are these: HT1080, 10 μM BIA, compared to untreated control cells. As to the method:
FIG. 74B is a result of treating HT1080 cells with BIA 10 μM and observing the fluorescence intensity of G-CEPIAer designed to measure calcium concentration inside
Since BI-1 regulates mTORC2 activation through ER Ca2+ release, the above results confirmed whether BIA inhibits Ca2+ release from BI-1.
On the other hand, when BIA is treated, calcium inside ER increases because […] in ER inhibits calcium. This was expressed G-CEPIAer, which measures the calcium concentration inside ER, and metamorphed HT1080 cells using CEPIAer plasmid to create stable cells. This transfected cell can be used to detect only free calcium from ER via BI-1 (TMBIM6) based on the calcium channel-like nature of BI-1 (TMBIM6). By confirming the increase in fluorescence, it was possible to confirm the specificity of the BIA (see FIG. 74B).

The subject of another data set is MCF7. Kind of data set: Cell proliferation/viability with BIA, IC50 after 3 days. As to conditions: Homo sapiens, MCF7, 72 h; MCF cells, treatment for 3 days.
A further data set concerns SARS-CoV2 virus. As to the kind of experiment: MTT cell viability of Vero E6 cells infected with SARS-CoV2. As to conditions: Vero E6, SARS-CoV2 0.1 MOI, 500 nM, 24 hours after treatment; control DMSO-S 66.52±2.28%; 0.5 µM. As to the method:
Vero E6 cells, monkey kidney cell masters, were dispensed at 1×10^4 cells/well per well in 96 well plates and incubated at 37° C., 5% CO2 incubators for 24 hours. SARS-CoV2 to infect Vero E6 cells was S ARS-CoV 43326 distributed from the National Pathogen Resource Bank, and DMEM (2% FBS, 1% antibiotic-antimycotic) medium was dispensed at 100 μL/well to infect 0.1 MOI. For 1 hour The virus was removed after 1 hour of infection in a 37° C., 5% CO2 incubator.
Next, samples prepared so that BIA or analogue compounds were finally 500 nM were dispensed 100 μL/well, including the culture medium, and then treated in a 37° C., 5% CO2 incubator for 24 hours. In the same way, the group treated with 2 μM, 5 μM, or 10 μM of Remdesivir (Rem) was a positive control.
Check the condition of the cells, add 100 μL/well of 0.5 mg/ml MTT solution, react in a 37° C., 5% CO2 incubator for 4 hours, wash out the media, and DMSO to the cells by 100 μL/well After sufficient dissolution, absorbance was measured at 540 nm with a plate reader to evaluate cell viability.
To confirm the possibility of viral prevention and therapeutic effects of BIA and its analogue compounds, 500 nM treatment of BIA analogue at the same time as viral infection, and then MTT assay whether the viability of cells against viral infection is improved after 24 hours. The results confirmed are shown in the graph of FIG. 82.

The test system of data set [3] is HT1080 cells stably overexpressing BI-1. Kind of data set: Cell proliferation of BI-1 overexpressing cells with BIA. As to conditions: 1 day after treatment.
A further data set has as its system MDA-MB-231. Kind of data set: Cell proliferation/viability with BIA, IC50 after 3 days. The conditions noted are these: Homo sapiens, 72 h; MDA-MB-231 cells, treatment for 3 days.

The term IC50 denotes the concentration at which inhibition is half-maximal. Read a low IC50 as higher potency. One may read the cell viability as the share of living cells, or the viability signal relative to a control. The low end stands for more harm to the cells, the high end for less harm to the cells. On to `Nc1ccccc1C(=O)/C=C/c1cccc([N+](=O)[O-])c1` [BIA, 2E-1-2-Aminophenyl-3-3-nitrophenyl-2-propen-1-one], for which the dose-dependent cell survival result in data set [1] (BI-1 (TMBIM6) knockout cells) is “did not show a decrease”. Besides, in data set [1] (BI-1 knockout HT1080, except for high concentrations of 20 and 30 μM), the “cell proliferation rate and AKT phosphorylation with or without BIA” value is reported as “the same”. The cell migration result in data set [2] (HT1080, MCF7, MDA-MB-231 and SKBR3 cells, 2.0 μM BIA) was “reduced”; in data set [2] (HT1080 cells, FIGS. 64A and 64B (migration, wound healing 2 μM)), “reduced”. For the same compound, the “migration of cancer cells” value in data set [2] (HT1080 fibrosarcoma cells, 10 μM, Transwell 12 hours) was “strongly inhibited”. The “G-CEPIAer fluorescence intensity (ER calcium)” value on BI-1 (TMBIM6) is “increased”. Moreover, the IC50 in the data set on MCF7 is 2600 ± 400 nM; with MDA-MB-231 it was 2600 ± 500 nM. Also, in the data set on SARS-CoV2 virus, the cell viability stood at 77.94±5.51%. For the same compound, in data set [3], the “sensitivity to BIA (cell proliferation)” value is on record as “high sensitivity”.
